Source: patent US11647751B2, “Use of phosphorus containing herbicides as desiccant for plants of the genus Saccharum” (BASF SE, priority 2013, dated 2023)

Tested on: Saccharum officinarum plants
Assay: Field trial: desiccation of sugarcane leaves after application of diluted glufosinate-ammonium compositions
Assay type: in vivo
Conditions: growth stage BBCH 49 (approx. 300 cm), evaluation 2 weeks after application
Protocol: The compositions described in the table above were diluted with water and applied to a field of Saccharum officinarum plants at growth stage BBCH 49 (approximately 300 cm growth height; corresponding to about 2 weeks before harvest), such that the amount of glufosinate ammonium was 800 g/ha or 1000 g/ha, respectively.

## CP(=O)(O)CCC(N)C(=O)O (centres unmarked) [glufosinate ammonium, 2-amino-4-[hydroxy(methyl)phosphinoyl]butanoic acid]
800 g/ha glufosinate ammonium
  desiccation of sugarcane leaves: 54%
1000 g/ha glufosinate ammonium
  desiccation of sugarcane leaves: 60%
